Test results published in the NIST ThermoML archive (doi:10.1016/j.fluid.2014.11.020).
Numbers after ± are expanded uncertainties.

Test: activity coefficient (dimensionless); of the first substance listed, at infinite dilution; xn = mol fraction of the nth substance listed
Conditions: Liquid, Chromatography, x1 = 0

| SMILES | activity coefficient (323.15 K) | activity coefficient (333.15 K) | activity coefficient (343.15 K) |
| --- | --- | --- | --- |
| CCN(CC)CC [triethylamine] + CCCOC[n+]1ccn(C)c1.N#C[N-]C#N | 10.3 ± 0.7 | 15.7 ± 1.1 | 24.8 ± 1.7 |
| C1CCCCCC1 [cycloheptane] + CCCOC[n+]1ccn(Cc2ccccc2)c1.N#C[N-]C#N | 35.8 ± 2.5 | 47.2 ± 3.2 | 56.3 ± 3.9 |
| C#CCCCCC [1-heptyne] + N#C[N-]C#N.N#C[N-]C#N.c1ccc(Cn2cc[n+](COCCCOC[n+]3ccn(Cc4ccccc4)c3)c2)cc1 | 19.1 ± 1.3 | 17.2 ± 1.2 | 15.9 ± 1.1 |
| CCO [ethanol] + CCCOC[n+]1ccn(C)c1.N#C[N-]C#N | 0.74 ± 0.05 | 0.73 ± 0.05 | 0.71 ± 0.05 |
| Cc1ccccc1 [toluene] + Cn1cc[n+](COCCCOC[n+]2ccn(C)c2)c1.O=S(=O)([N-]S(=O)(=O)C(F)(F)F)C(F)(F)F.O=S(=O)([N-]S(=O)(=O)C(F)(F)F)C(F)(F)F | 1.46 ± 0.1 | 1.48 ± 0.1 | 1.46 ± 0.1 |
| CCC(C)CC [3-methylpentane] + CCCOC[n+]1ccn(C)c1.O=S(=O)([N-]S(=O)(=O)C(F)(F)F)C(F)(F)F | 14.4 ± 0.98 | 10.8 ± 0.74 | – |
| C=CCCCC [hex-1-ene] + CN(C)c1cc[n+](COCCCOC[n+]2ccc(N(C)C)cc2)cc1.O=S(=O)([N-]S(=O)(=O)C(F)(F)F)C(F)(F)F.O=S(=O)([N-]S(=O)(=O)C(F)(F)F)C(F)(F)F | 9.4 ± 0.64 | 8.7 ± 0.59 | 7.95 ± 0.54 |
| C#CCCCC [1-hexyne] + CCCOC[n+]1ccn(C)c1.O=S(=O)([N-]S(=O)(=O)C(F)(F)F)C(F)(F)F | 3.39 ± 0.23 | 3.4 ± 0.23 | 3.4 ± 0.23 |
| c1ccccc1 [benzene] + CCCOC[n+]1ccn(Cc2ccccc2)c1.N#C[N-]C#N | 1.51 ± 0.1 | 1.5 ± 0.1 | 1.5 ± 0.1 |
| C#CCCCC [1-hexyne] + CCCOC[n+]1ccn(C)c1.N#C[N-]C#N | 6.98 ± 0.48 | 7.6 ± 0.52 | – |
| CCC[N+](=O)[O-] [1-nitropropane] + CN(C)c1cc[n+](COCCCOC[n+]2ccc(N(C)C)cc2)cc1.O=S(=O)([N-]S(=O)(=O)C(F)(F)F)C(F)(F)F.O=S(=O)([N-]S(=O)(=O)C(F)(F)F)C(F)(F)F | 0.57 ± 0.04 | 0.59 ± 0.04 | 0.56 ± 0.04 |
| C1COCCO1 [1,4-dioxane] + CCCCCCCCn1cc[n+](COCCC)c1C.N#C[N-]C#N | 0.77 ± 0.05 | 0.78 ± 0.05 | 0.78 ± 0.05 |
| ClC(Cl)Cl [trichloromethane] + CN(C)c1cc[n+](COCCCOC[n+]2ccc(N(C)C)cc2)cc1.O=S(=O)([N-]S(=O)(=O)C(F)(F)F)C(F)(F)F.O=S(=O)([N-]S(=O)(=O)C(F)(F)F)C(F)(F)F | 0.67 ± 0.05 | 0.69 ± 0.05 | 0.7 ± 0.05 |
| CCCCCC [hexane] + CCCOC[n+]1ccn(C)c1.O=S(=O)([N-]S(=O)(=O)C(F)(F)F)C(F)(F)F | 15.9 ± 1.1 | 13.3 ± 0.91 | – |
| CO [methanol] + CCCCCCCCn1cc[n+](COCCC)c1C.O=S(=O)([N-]S(=O)(=O)C(F)(F)F)C(F)(F)F | 0.98 ± 0.06 | 0.89 ± 0.06 | 0.85 ± 0.05 |
| C#CCCCC [1-hexyne] + CN(C)c1cc[n+](COCCCOC[n+]2ccc(N(C)C)cc2)cc1.O=S(=O)([N-]S(=O)(=O)C(F)(F)F)C(F)(F)F.O=S(=O)([N-]S(=O)(=O)C(F)(F)F)C(F)(F)F | 3 ± 0.2 | 2.96 ± 0.2 | 2.92 ± 0.2 |
| Cc1ccc(C)cc1 [1,4-dimethylbenzene] + CCCOC[n+]1ccn(C)c1.N#C[N-]C#N | 5.98 ± 0.41 | 6.03 ± 0.41 | 6.05 ± 0.41 |
| CCOCC [diethyl ether] + CCCOC[n+]1ccn(C)c1.F[B-](F)(F)F | 10.4 ± 0.71 | 10.6 ± 0.72 | – |
| C1CCCCC1 [cyclohexane] + CCCOC[n+]1ccc(N(C)C)cc1.O=S(=O)([N-]S(=O)(=O)C(F)(F)F)C(F)(F)F | 7.06 ± 0.48 | 6.83 ± 0.47 | 6.37 ± 0.43 |
| ClCCl [dichloromethane] + CCCOC[n+]1ccn(Cc2ccccc2)c1.F[B-](F)(F)F | 0.78 ± 0.05 | 0.78 ± 0.05 | 0.79 ± 0.05 |
| CC(C)CO [2-methyl-1-propanol] + CCCCCCCCn1cc[n+](COCCCOC[n+]2ccn(CCCCCCCC)c2C)c1C.O=S(=O)([N-]S(=O)(=O)C(F)(F)F)C(F)(F)F.O=S(=O)([N-]S(=O)(=O)C(F)(F)F)C(F)(F)F | 0.8 ± 0.05 | 0.72 ± 0.05 | 0.67 ± 0.05 |
| CCc1ccccc1 [ethylbenzene] + CCCOC[n+]1ccn(Cc2ccccc2)c1.O=S(=O)([N-]S(=O)(=O)C(F)(F)F)C(F)(F)F | 1.5 ± 0.1 | 1.33 ± 0.09 | 1.32 ± 0.09 |

| SMILES | activity coefficient (323.15 K) | activity coefficient (333.15 K) | activity coefficient (343.15 K) |
| --- | --- | --- | --- |
| CCC(C)CC [3-methylpentane] + CCCOC[n+]1ccc(N(C)C)cc1.O=S(=O)([N-]S(=O)(=O)C(F)(F)F)C(F)(F)F | 9.61 ± 0.66 | 9.48 ± 0.65 | 9.24 ± 0.63 |
| CCCCCCC [heptane] + CCCOC[n+]1ccn(C)c1.O=S(=O)([N-]S(=O)(=O)C(F)(F)F)C(F)(F)F | 22.9 ± 1.6 | 20.4 ± 1.4 | 17.1 ± 1.2 |
| C1COCCO1 [1,4-dioxane] + CCCCCCCCn1cc[n+](COCCCOC[n+]2ccn(CCCCCCCC)c2C)c1C.N#C[N-]C#N.N#C[N-]C#N | 0.55 ± 0.04 | 0.55 ± 0.04 | 0.55 ± 0.04 |
| CCC(C)CC [3-methylpentane] + CCCOC[n+]1ccn(Cc2ccccc2)c1.N#C[N-]C#N | 28.5 ± 1.9 | – | – |
| CCO [ethanol] + CCCCCCCCn1cc[n+](COCCC)c1C.N#C[N-]C#N | 0.39 ± 0.03 | 0.38 ± 0.03 | 0.38 ± 0.03 |
| C1CCCCC1 [cyclohexane] + CCCOC[n+]1ccn(C)c1.N#C[N-]C#N | 26.6 ± 1.8 | 24.3 ± 1.7 | 22.7 ± 1.6 |
| Cc1ccccc1 [toluene] + CN(C)c1cc[n+](COCCCOC[n+]2ccc(N(C)C)cc2)cc1.O=S(=O)([N-]S(=O)(=O)C(F)(F)F)C(F)(F)F.O=S(=O)([N-]S(=O)(=O)C(F)(F)F)C(F)(F)F | 0.92 ± 0.06 | 0.94 ± 0.06 | 0.96 ± 0.06 |
| C#CCCCC [1-hexyne] + CCCOC[n+]1ccc(N(C)C)cc1.O=S(=O)([N-]S(=O)(=O)C(F)(F)F)C(F)(F)F | 2.51 ± 0.17 | 2.5 ± 0.17 | 2.5 ± 0.17 |
| CC(C)O [propan-2-ol] + CN(C)c1cc[n+](COCCCOC[n+]2ccc(N(C)C)cc2)cc1.O=S(=O)([N-]S(=O)(=O)C(F)(F)F)C(F)(F)F.O=S(=O)([N-]S(=O)(=O)C(F)(F)F)C(F)(F)F | 1.42 ± 0.09 | 1.3 ± 0.08 | 1.18 ± 0.08 |
| ClC(Cl)(Cl)Cl [tetrachloromethane] + CCCCCCCCn1cc[n+](COCCCOC[n+]2ccn(CCCCCCCC)c2C)c1C.O=S(=O)([N-]S(=O)(=O)C(F)(F)F)C(F)(F)F.O=S(=O)([N-]S(=O)(=O)C(F)(F)F)C(F)(F)F | 0.99 ± 0.06 | 0.92 ± 0.06 | 1.02 ± 0.06 |
| CCCCCCCCC [nonane] + CCCCCCCCn1cc[n+](COCCC)c1C.N#C[N-]C#N | 14.9 ± 1 | 13.6 ± 0.93 | 13.1 ± 0.9 |
| CCC[N+](=O)[O-] [1-nitropropane] + CCCOC[n+]1ccn(Cc2ccccc2)c1.F[B-](F)(F)F | 1.16 ± 0.07 | 1.12 ± 0.07 | 1.14 ± 0.07 |
| Cc1ccc(C)cc1 [1,4-dimethylbenzene] + CCCOC[n+]1ccn(C)c1.O=S(=O)([N-]S(=O)(=O)C(F)(F)F)C(F)(F)F | 2.58 ± 0.18 | 2.53 ± 0.17 | 2.52 ± 0.17 |
| CC(C)CO [2-methyl-1-propanol] + CCCOC[n+]1ccn(Cc2ccccc2)c1.F[B-](F)(F)F | 2.86 ± 0.19 | 2.53 ± 0.17 | 2.34 ± 0.16 |
| C[N+](=O)[O-] [nitromethane] + CCCCCCCCn1cc[n+](COCCC)c1C.O=S(=O)([N-]S(=O)(=O)C(F)(F)F)C(F)(F)F | 0.56 ± 0.04 | 0.52 ± 0.04 | 0.52 ± 0.04 |
| CC#N [acetonitrile] + CCCCCCCCn1cc[n+](COCCC)c1C.O=S(=O)([N-]S(=O)(=O)C(F)(F)F)C(F)(F)F | 0.48 ± 0.04 | 0.46 ± 0.04 | 0.47 ± 0.04 |
| CCC[N+](=O)[O-] [1-nitropropane] + CCCCCCCCn1cc[n+](COCCCOC[n+]2ccn(CCCCCCCC)c2C)c1C.O=S(=O)([N-]S(=O)(=O)C(F)(F)F)C(F)(F)F.O=S(=O)([N-]S(=O)(=O)C(F)(F)F)C(F)(F)F | 0.34 ± 0.03 | 0.33 ± 0.03 | 0.32 ± 0.03 |
| c1ccccc1 [benzene] + CCCOC[n+]1ccn(Cc2ccccc2)c1.O=S(=O)([N-]S(=O)(=O)C(F)(F)F)C(F)(F)F | 0.81 ± 0.05 | 0.71 ± 0.05 | 0.71 ± 0.05 |
| Cc1ccc(C)cc1 [1,4-dimethylbenzene] + CCCCCCCCn1cc[n+](COCCCOC[n+]2ccn(CCCCCCCC)c2C)c1C.O=S(=O)([N-]S(=O)(=O)C(F)(F)F)C(F)(F)F.O=S(=O)([N-]S(=O)(=O)C(F)(F)F)C(F)(F)F | 0.75 ± 0.05 | 0.73 ± 0.05 | 0.73 ± 0.05 |
| CC1CCCCC1 [methylcyclohexane] + CCCCCCCCn1cc[n+](COCCC)c1C.N#C[N-]C#N | 5.11 ± 0.35 | 4.86 ± 0.33 | 4.81 ± 0.33 |
| CCCCCCC [heptane] + CCCOC[n+]1ccn(Cc2ccccc2)c1.N#C[N-]C#N | 48 ± 3.3 | 44.9 ± 3.1 | 41.8 ± 2.9 |
| CCC(=O)CC [pentan-3-one] + CCCCCCCCn1cc[n+](COCCC)c1C.N#C[N-]C#N | 0.88 ± 0.06 | 0.89 ± 0.06 | 0.91 ± 0.06 |
